Here are results for three compounds from PMC8733726, “Dioctanoyl Ultrashort Tetrabasic β-Peptides Sensitize Multidrug-Resistant Gram-Negative Bacteria to Novobiocin and Rifampicin” (Frontiers in Microbiology, 2021).

The conditions of data set [1]: cited from earlier work.
Data set [2] concerns MDR K. pneumoniae. Format: cell-based, Klebsiella pneumoniae. As to conditions: MDR, 18 h. As for the experimental part:
(§1) The adjuvant activities of dUSTBβPs were evaluated using checkerboard assay as previously described ([Berry et al., 2019]). Overnight-grown bacterial culture diluted in saline to 0.5 McFarland turbidity was successively diluted 1:50 in MHB to achieve a final concentration of 5 × 10^5 CFU/mL for inoculation. The antibiotic and adjuvant were serially diluted 2-fold along the x-axis and y-axis, respectively, resulting in varying concentrations of both agents in each well. Subsequently, the 96-well plate was incubated with equal volumes of bacterial inoculum at 37°C for 18 h. Confirmation of turbidity was done using an EMax Plus microplate reader (Molecular Devices, United States) at a wavelength of 590 nm. Wells comprising MHB alone or in the presence of bacterial cells were used as negative or positive controls, respectively. Fractional inhibitory concentration index (FICI) is determined by adding the FICs of both antibiotic and adjuvant. The FIC of the antibiotic is calculated by dividing the MIC of the antibiotic in the presence of the adjuvant by the MIC of the antibiotic alone. Similarly, the FIC of the adjuvant is calculated by dividing the MIC of the adjuvant in the presence of the antibiotic by the MIC of the adjuvant alone. FICI ≤ 0.5, 0.5 < x ≤ 4, and >4 were deemed synergistic, additive, and antagonistic, respectively ([Meletiadis et al., 2010]).

The nature of data set [3]: in vitro. Format: cell-based. As to conditions: human. As for the experimental part:
The degree of hemolysis induced by dUSTBβPs was determined by the amount of hemoglobin released from human erythrocytes upon incubation. Fresh human blood supplied by a commercial vendor was obtained from normal healthy volunteers following informed consent. The agent of interest was serially diluted in vehicle consisting of phosphate-buffered saline (PBS), saline, 5% glucose, or equivalents. The samples were incubated with gentle mixing at 37°C for 45 min and were subsequently centrifuged. The supernatant (plasma layer) was removed and centrifuged once more to completely pellet the cells. The plasma layer was diluted with Drabkin’s reagent and analyzed at a wavelength of 540 nm. Experiments were conducted in triplicates, and a calibration curve prepared by diluting blood (after addition of vehicle) was used to quantitate heme release. The vehicle or Triton X-100 were used as negative or positive controls, respectively.

Data set [4] has as its system A. baumannii ATCC 17978. Format: cell-based, Acinetobacter baumannii. As to conditions: ATCC 17978, 18 h. As for the experimental part:
(§2) The in vitro antibacterial activities of dUSTBβPs were evaluated using microbroth dilution susceptibility test, in accordance with the Clinical and Laboratory Standards Institute (CLSI) guidelines ([Clinical and Laboratory Standards Institute, 2019]). Overnight-grown bacterial culture diluted in saline to 0.5 McFarland turbidity was successively diluted 1:50 in Mueller-Hinton broth (MHB) to achieve a final concentration of 5 × 10^5 colony forming units (CFU)/mL for inoculation. The agents were serially diluted 2-fold in MHB on a 96-well plate; mixed with bacterial inoculum of equal volumes, and incubated at 37°C for 18 h. Antibacterial activity was determined by the minimum inhibitory concentration (MIC), which is the lowest concentration of agent required for inhibition of visible bacterial growth in the form of turbidity. Confirmation of turbidity was done using an EMax Plus microplate reader (Molecular Devices, United States) at a wavelength of 590 nm. Wells comprising MHB alone or MHB inoculated with bacteria were used as negative or positive controls, respectively.

Data set [5] concerns E. coli ATCC 25922. Format: cell-based, Escherichia coli. As to conditions: not told. As for the experimental part: (§3) The ability of dUSTBβP 3 to permeabilize the OM of Acinetobacter baumannii ATCC 17978 and Escherichia coli ATCC 25922 was assessed using 1-N-phenylnaphthylamine (NPN) as previously described with minor modifications ([Yang et al., 2017]; [Akhoundsadegh et al., 2019]). Overnight grown culture was subcultured (1 in 100) in fresh LB broth and grown to a mid-logarithmic phase (OD600 = 0.4–0.6). […] NPN (10 μM final concentration) was added to a black 96-well plate containing the cell culture and incubated in 5 mM HEPES (pH 7.2) supplemented with 5 mM glucose and 5 μM carbonyl cyanide 3-chlorophenylhydrazone at room temperature for 30 min in darkness. Varying concentrations of compound were added onto the suspension, and the resulting change in NPN fluorescence was measured continuously (every 30 s) on a SpectraMax M2 microplate reader (Molecular Devices, United States) at an excitation wavelength of 350 nm and an emission wavelength of 420 nm. Cells with NPN and the OM permeabilizer PMBN served as a positive control, while cells with NPN alone served as a negative control. Three replicates were conducted, and the data were corrected for any background fluorescence.

Data set [6] can be described thus: Cell viability assay. Format: cell-based. Conditions: human. As for the experimental part: (§4) Cell viability assay was performed essentially as previously described ([[…] et al., 2019]). […] The cells were detached with trypsin and equal numbers of cells (8,000 cells in 50 μL) were dispersed into five rows of each column in 96-well plate; the remaining three rows of each column, designated as blanks, received 50 μL of the media without cells. After 24 h incubation, aliquots of 50 μL of dUSTBβP 3 at varying concentrations were added to each well and incubated for 48 h. […] Values from the wells without cells (blank wells) were subtracted from the corresponding sample wells and cell viability values of the treated samples relative to the vehicle controls set to 100% was determined. […] The results represent the mean ± SD of two independent experiments with five samples per experiment. […] Colistin was used as a negative control and doxorubicin, an anticancer drug, was used as a positive control.

Data set [7] has as its system P. aeruginosa PAO1. Format: cell-based, Pseudomonas aeruginosa. As to conditions: PAO1, 18 h. As for the experimental part:
as §2

Data set [8] can be described thus: in vitro. As to conditions: human. Format: cell-based. As for the experimental part: as §4
This is another data set of the same source.

Data set [9] deals with A. baumannii ATCC 17978. Format: cell-based, Acinetobacter baumannii. As to conditions: not told. The protocol: as §3
The subject of data set [10] is MDR clinical isolates of A. baumannii. Format: cell-based, Acinetobacter baumannii. Conditions: MDR clinical isolates of, 18 h. The protocol: as §1
Data set [11] has as its system wild-type E. coli ATCC 25922. Kind of data set: microbe, parasite or virus in culture. Format: cell-based, Escherichia coli. In outline: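 Overnight cultures were adjusted to 0.5 McFarland, then diluted to 5 × 10^5 CFU/mL in MHB. They were added to crossed 2-fold dilutions of antibiotic and adjuvant and incubated 18 h at 37°C. MICs came from OD590, and an FICI ≤ 0.5 was taken as synergy.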

Data set [12] deals with E. coli ATCC 25922. Format: cell-based, Escherichia coli. As to conditions: ATCC 25922, 18 h. The protocol: as §2
Data set [13] can be described thus: in vitro. Conditions: human, plasma. As for the experimental part: Stability of dUSTBβP 3 was evaluated in human plasma. […] The supernatant was analyzed by HPLC-tandem mass spectrometry using selected reaction monitoring. The % compound remaining was determined by comparing peak areas at different time points to time zero. Assuming first-order kinetics, the half-life was extrapolated from the slope of the initial linear range of the logarithmic curve of compound remaining over time. Experiments were performed in duplicates, and the reference compounds include propantheline and propoxycaine.

In data set [14] the test system is MDR E. cloacae clinical isolates. As to the kind of experiment: Resistance phenotype (MICs of antibiotics) of MDR clinical isolates. Format: cell-based, Enterobacter cloacae.
Data set [15] relates to MDR E. coli clinical isolates. The data set is described as above. Format: cell-based, Escherichia coli.
For data set [16], the system named is wild-type P. aeruginosa PAO1. As to the kind of experiment: microbe, parasite or virus in culture. As to conditions: PAO1. Format: cell-based, Pseudomonas aeruginosa. The method in brief:
(§5)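 Checkerboard in MHB with 5 × 10^5 CFU/mL inoculum, antibiotic and adjuvant each serially 2-fold diluted on crossed axes. Growth read as turbidity at 590 nm; FICI is the sum of each agent's MIC in combination divided by its MIC alone.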

In data set [17] the test system is wild-type A. baumannii ATCC 17978. As to the kind of experiment: Checkerboard assay. Conditions: ATCC 17978. Format: cell-based, Acinetobacter baumannii. In outline:
as §5

Data set [18] has as its system MDR K. pneumoniae clinical isolates. Kind of data set: Resistance phenotype (MICs of antibiotics) of MDR clinical isolates. Format: cell-based, Klebsiella pneumoniae.
The subject of data set [19] is MDR A. baumannii clinical isolates. The data set is described as above. Format: cell-based, Acinetobacter baumannii.
Data set [20] relates to MDR P. aeruginosa clinical isolates. The description is as above. Format: cell-based, Pseudomonas aeruginosa.
Where [21] appears, read: antibiotic alone (Supplementary Table 7).
Where [22] appears, read: antibiotic with dUSTBβP 3 at 8 μg/mL.

In brackets after ≈: the same amount, converted by molar mass. Like-named read-outs stand apart in the source and are kept apart here.

What is called MIC is the smallest concentration in the dilution series that meets the test's criterion for growth inhibition. Broadly, the CC50 is the concentration that lowers cell viability or growth by half. The low end stands for harm at low concentration, the high end for better tolerance by the cells. By viability is commonly meant a per cent measure of how many cells are alive, often set against a control. High values mean better survival, low ones a greater loss of cells. The half-life is the time needed for the level to fall by half in the phase considered. Low readings indicate rapid decline, high ones slow decline. The term fraction remaining denotes what is left of the initial amount, in per cent. A higher fraction remaining goes with greater stability.

On to `CCCCCCCCCCNCCN[C@@]1(C)C[C@H](O[C@H]2[C@H](Oc3c4cc5cc3Oc3ccc(cc3Cl)[C@@H](O)[C@@H](NC(=O)[C@@H](CC(C)C)NC)C(=O)N[C@@H](CC(N)=O)C(=O)N[C@H]5C(=O)N[C@H]3C(=O)N[C@H](C(=O)N[C@H](C(=O)O)c5cc(O)c(CNCP(=O)(O)O)c(O)c5-c5cc3ccc5O)[C@H](O)c3ccc(c(Cl)c3)O4)O[C@H](CO)[C@@H](O)[C@@H]2O)O[C@@H](C)[C@H]1O` [telavancin], for which, in data set [1] (ref Chen and Lu, 2020), the “In vivo elimination half-life” value was 8 h.

`CCCCCCCC(=O)NC(CCCNC(=N)N)CC(=O)NCCCN(CCCNC(=O)CC(CCCNC(=N)N)NC(=O)CCCCCCC)CC(=O)NC(CCCNC(=N)N)CC(N)=O` (centres unmarked) [dUSTBβP 3]: the FICI in [2] was less than 0.156. In [3], the hemolysis at 45 min, 1.5625 µM stood at 3.23 ± 0.08%; the hemolysis at 45 min, 3.125 µM came to 3.32 ± 0.16%; the hemolysis at 45 min, 6.25 µM was found to be 3.18 ± 0.05%; the hemolysis at 45 min, 12.5 µM is 3.28 ± 0.12%. In data set [3], this compound came in with a hemolysis at 45 min, 25 µM of 3.35 ± 0.09%; a hemolysis at 45 min, 50 µM of 3.43 ± 0.49%; a hemolysis at 45 min, 100 µM of 4.17 ± 1.29%; a hemolysis at 45 min, 200 µM of 4.59 ± 2.42%. Besides, the minimum inhibitory concentration (MIC) in data set [4] was more than 128 µg/mL. In addition, the “OM permeabilization, NPN fluorescence” value in [5] was “dose-dependently permeabilizes the OM”. This compound also gave a 50% cytotoxic concentration (CC50) at 48 h in [6] of 101 µM. In data set [7], this compound returned a minimal inhibitory concentration (MIC) of 128 µg/mL (≈ 135 µM). In data set [8], this compound had a viability at 48 h, 125 µM of 86.4 ± 8.7%. Further, the “OM permeabilization, NPN fluorescence” value in data set [9] was “dose-dependently permeabilizes the OM”. For the same compound, the “MIC of compound alone” value in data set [10] was found to be 16 µg/mL. Besides, the FICI in data set [11] (ATCC 25922, 18 h) came to 0.064. For the same compound, the MIC in [12] worked out at 128 µg/mL (≈ 135 µM). In data set [13], the half-life at 1 μM is 10.4 ± 3.7 h and the share remaining at 2 h, 1 μM is 86.8 ± 3.7%.

Colistin: the MIC in data set [14] (117029) is 0.25 µg/mL; in data set [14] (118564), more than 16 µg/mL; in data set [14] (121187), more than 16 µg/mL; in [15] (94393 (mcr-1 +)) it was 4 µg/mL; in [15] (94474 (mcr-1 +)), 16 µg/mL; in [15] (107115), 0.125 µg/mL. The minimal inhibitory concentration (MIC) was more than 16 µg/mL in data set [18] (113250); more than 16 µg/mL in data set [18] (113254); 1 µg/mL in [18] (116381); 4 µg/mL in data set [19] (92247); 0.5 µg/mL in data set [19] (110193); 0.25 µg/mL in data set [19] (AB027). Moreover, the MIC in [19] (AB031) was determined as 0.25 µg/mL; in [19] (LAC-4) it was 0.125 µg/mL; in [20] (259-96196), 1 µg/mL; in data set [20] (262-101856), 1 µg/mL; in data set [20] (264-104354) it was 1 µg/mL; in [20] (91433) it was 4 µg/mL. In [20] (114228), this compound showed an MIC of 4 µg/mL. Moreover, the MICantibiotic in data set [16] (setting [21]) came to 1; in data set [17] (setting [21]) it was 0.5; in data set [11] (ATCC 25922, antibiotic alone (Supplementary Table 7)), 0.125. Also, the MICcombo in data set [16] (setting [22]) turned out to be 1 µg/mL; in data set [17] (setting [22]), 0.25 µg/mL; in [11] (ATCC 25922, antibiotic with dUSTBβP 3 at 8 μg/mL), 0.031 µg/mL. Moreover, in [1] (in vivo), the “In vivo elimination half-life” value is given as 5 h.
